From US20130102631A1, “NOVEL MICROBIOCIDAL DIOXIME ETHER DERIVATIVES” (SYNGENTA CROP PROTECTION LLC, priority 2010, published 2013)

Legend:
[1] = system: Thanatephorus cucumeris (Rhizoctonia solani); experiment: Thanatephorus cucumeris (Rhizoctonia solani) / liquid culture (foot rot, damping-off); format: cell-based; details: at ≦200 ppm, liquid culture PDB, inhibition of growth photometrically 3-4 days after application, read-out: control of Thanatephorus cucumeris
Experimental: Thanatephorus cucumeris (Rhizoctonia solani)/Liquid Culture (Foot Rot, Damping-Off Mycelia fragments of a newly grown liquid culture of the fungus are directly mixed into nutrient broth (PDB potato dextrose broth). After placing a DMSO solution of the test compounds into a 96-well microtiter, the nutrient broth containing the fungal material was added. The test plates were incubated at 24° C. and the inhibition of growth was determined photometrically 3-4 days after application. […]-2.508 5.561; 2.561; P.57; 2.513; 2.559; 2.558; 2.553; 2.533; 2.530; 2.526; 2.519; 2.517; 2.516; 2.514; 2.512; 2.514

[2] = system: Mycosphaerella graminicola (Septoria tritici); experiment: Mycosphaerella graminicola (Septoria tritici) / liquid culture (Septoria blotch); format: cell-based; details: Zymoseptoria tritici; at ≦200 ppm, liquid culture PDB, inhibition of growth photometrically 4-5 days after application; read-out: control of Mycosphaerella graminicola
[3] = system: Mycosphaerella arachidis (Cercospora arachidicola); experiment: Mycosphaerella arachidis (Cercospora arachidicola) / liquid culture (early leaf spot); format: cell-based; details: at ≦200 ppm, liquid culture PDB, inhibition of growth photometrically 4-5 days after application, read-out: control of Mycosphaerella arachidis
Experimental: Mycosphaerella arachidis (Cercospora arachidicola)/Liquid Culture (Early Leaf Spot): Conidia of the fungus from cryogenic storage were directly mixed into nutrient broth (PDB potato dextrose broth). After placing a DMSO solution of test compound into a 96-well microtiter plate, the nutrient broth containing the fungal spores was added. The test plates are incubated at 24° C. and the inhibition of growth was determined photometrically 4-5 days after application. […]-2.509; 5.561; 2.561; P.57; 2.513; 2.559; 2.558; 2.557; 2.556; 2.555; 2.374; 2.553; 2.552; 2.551 (fraction B); 2.551 (fraction A); 2.544; 2.541; 2.539; 2.537; 2.536; 2.533; 2.532; 2.531; 2.530; 2.528; 2.526; 2.525 (fraction B); 2.525 (fraction A); 2.524; 2.520; 2.519; 2.510; 2.518; 2.517; 2.516; 2.514; […].002; 2.512; 2.511; 2.514

Gaeumannomyces graminis = Gaeumannomyces graminis / liquid culture (take-all of cereals); format: cell-based; details: at ≦200 ppm, liquid culture PDB, inhibition of growth photometrically 4-5 days after application, read-out: control of Gaeumannomyces graminis
Experimental: Gaeumannomyces graminis/Liquid Culture (Take-All of Cereals): Mycelial fragments of the fungus from cryogenic storage were directly mixed into nutrient broth (PDB potato dextrose broth). After placing a DMSO solution of test compound into a 96-well microtiter plate, the nutrient broth containing the fungal spores is added. The test plates were incubated at 24° C. and the inhibition of growth was determined photometrically 4-5 days after application. […]-2.509; 5.561; 2.561; P.57; 2.513; 2.559; 2.558; 2.557; 2.556; 2.555; 2.374; 2.553; 2.552; 2.551 (fraction B); 2.551 (fraction A); 2.539; 2.533; 2.528; 2.526; 2.525 (fraction B); 2.525 (fraction A); 2.524; 2.523; 2.521; 2.520; 2.519; 2.510; 2.518; 2.516; 2.514; E/E-5.167; E/E-3.002; 2.512; E/E-2.508

[4] = system: Monographella nivalis (Microdochium nivale); experiment: Monographella nivalis (Microdochium nivale) / liquid culture (foot rot cereals); format: cell-based; details: at ≦200 ppm, liquid culture PDB, inhibition of growth photometrically 4-5 days after application, read-out: control of Monographella nivalis
Experimental: Monographella nivalis (Microdochium nivale)/Liquid Culture (Foot Rot Cereals): Conidia of the fungus from cryogenic storage were directly mixed into nutrient broth (PDB potato dextrose broth). After placing a DMSO solution of test compound into a 96-well microtiter plate, the nutrient broth containing the fungal spores was added. The test plates were incubated at 24° C. and the inhibition of growth was determined photometrically 4-5 days after application. […].57; 2.513; 2.559; 2.558; 2.556; 2.555; 2.374; 2.553; 2.551 (fraction B); 2.551 (fraction A); 2.548; 2.544; 2.542; 2.541; 2.539; 2.536; 2.535; 2.533; 2.530; 2.528; 2.526; 2.525 (fraction B); 2.525 (fraction A); 2.524; 2.519; 2.518; 2.516; 2.514; E/E-5.167; 2.512; 2.514

Glomerella lagenarium = Glomerella lagenarium (Colletotrichum lagenarium) / liquid culture (anthracnose); format: cell-based; details: Colletotrichum orbiculare; at ≦200 ppm, liquid culture PDB, inhibition of growth photometrically 3-4 days after application; read-out: control of Glomerella lagenarium
Experimental: Glomerella lagenarium (Colletotfichum lagenarium)/Liquid Culture (Anthracnose): Conidia of the fungus from cryogenic storage were directly mixed into nutrient broth (PDB potato dextrose broth). After placing a DMSO solution of test compound into a 96-well microtiter, the nutrient broth containing the fungal spores was added. The test plates were incubated at 24° C. and the inhibition of growth is measured photometrically 3-4 days after application. […]-2.509; 5.561; 2.561; E/E-2.208; P.57; 2.513; 2.559; 2.556; 2.555; 2.374; 2.552; 2.548; 2.544; 2.541; 2.540; 2.539; 2.537; 2.536; 2.533; 2.531; 2.530; 2.528; 2.526; 2.519; 2.510; 2.516; 2.514; E/E-5.167; E/E-3.002; 2.512; 2.514; Z/E-2.474

[5] = system: Puccinia recondita f. sp. tritici; experiment: Puccinia recondita f. sp. tritici / wheat / leaf disc curative (brown rust); format: in vivo; details: foliar, wheat leaf segments cv Kanzler, 200 ppm applied 1 day after inoculation, assessed 6-8 days after application
Experimental: Puccinia recondita f. sp. tritici/Wheat/Leaf Disc Curative (Brown Rust): Wheat leaf segments cv Kanzler were placed on agar in 24-well plates. The leaf segments were inoculated with a spore suspension of the fungus. The plates were stored in darkness at 19° C. and 75% relative humidity. The formulated test compound diluted in water was applied at an application rate of 200 ppm 1 day after inoculation. […]-2.508; 5.561; 2.561; E/E-2.208; 2.513; 2.559; 2.556; 2.555; 2.374; 2.552; 2.537; 2.519; 2.516; 2.514; […].002; 2.512; E/E-2.507

[6] = system: Blumeria graminis f. sp. tritici (Erysiphe graminis f. sp. tritici); experiment: Blumeria graminis f. sp. tritici / wheat / leaf disc preventative (powdery mildew on wheat); format: in vivo; details: foliar, wheat leaf segments cv. Kanzler, inoculated 1 day after application, assessed 6-8 days after application
Experimental: Blumeria graminis f. sp. tritici (Erysiphe graminis f. sp. tritici)/Wheat/Leaf Disc Preventative (Powdery Mildew on Wheat):
Wheat leaf segments cv. Kanzler were placed on agar in a 24-well plate and sprayed with the formulated test compound diluted in water at an application rate of 200 ppm. The leaf disks were inoculated by shaking powdery mildew infected plants above the test plates 1 day after application. The inoculated leaf disks were incubated at 20° C. and 60% relative humidity under a light regime of 24 h darkness followed by 12 h/12 h (dark/light) in a climate chamber and the activity of a compound was assessed as percent disease control compared to untreated when an appropriate level of disease damage appears on untreated check leaf segments (6-8 days after application). The following compounds gave at least 80% control of Blumeria graminis: E/E-2.168, E/E-2.474, E/E-2.002; 5.561; 2.561; E/E-2.208; 2.513; 2.559; 2.557; 2.556; 2.555; 2.374; 2.552; 2.537; 2.533; 2.530; 2.528; 2.526; 2.519; 2.510; 2.516; 2.514; E/E-5.167; E/E-3.002; 2.512; 2.511

[7] = system: Phaeosphaeria nodorum (Septoria nodorum); experiment: Phaeosphaeria nodorum (Septoria nodorum) / wheat / leaf disc preventative (glume blotch); format: in vivo; details: Parastagonospora nodorum, foliar, wheat leaf segments cv Kanzler, inoculated 2 days after application, assessed 5-7 days after application
Experimental: Phaeosphaeria nodorum (Septoria nodorum)/Wheat/Leaf Disc Preventative (Glume Blotch): Wheat leaf segments cv Kanzler were placed on agar in a 24-well plate and sprayed with formulated test compound diluted in water at an application rate of 200 ppm. The leaf disks are inoculated with a spore suspension of the fungus 2 days after application. The inoculated test leaf disks are incubated at 20° C. and 75% relative humidity under a light regime of 12/12 h (light/dark) in a climate cabinet and the activity of a compound is assessed as percent disease control compared to untreated when an appropriate level of disease damage appears in untreated check leaf disks (5-7 days after application). […]-2.508; 5.561; 2.561; E/E-2.208; P.57; 2.513; 2.559; 2.558; 2.557; 2.556; 2.555; 2.374; 2.544; 2.541; 2.539; 2.537; 2.536; 2.535; 2.533; 2.530; 2.526; 2.519; 2.510; 2.516; 2.514; E/E-5.167; E/E-3.002; 2.512

Pyrenophora teres = Pyrenophora teres / barley / leaf disc preventative (net blotch); format: in vivo; details: foliar, barley leaf segments cv Hasso, inoculated two days after application, assessed 5-7 days after application
Experimental: Pyrenophora teres/Barley/Leaf Disc Preventative (Net Blotch): Barley leaf segments cv Hasso are placed on agar in a 24-well plate and sprayed with formulated test compound diluted in water at an application rate of 200 ppm. The leaf segments are inoculated with a spore suspension of the fungus two days after application of the test solution. The inoculated leaf segments are incubated at 20° C. and 65% relative humidity under a light regime of 12/12 h (light/dark) in a climate cabinet and the activity of a compound is assessed as disease control compared to untreated when an appropriate level of disease damage appears in untreated check leaf segments (5-7 days after application). […]-2.507; 5.561; 2.561; E/E-2.208; P.57; 2.513; 2.559; 2.558; 2.556; 2.555; 2.374; 2.552; 2.544; 2.537; 2.533; 2.530; 2.528; 2.519; 2.510; 2.516; 2.514; E/E-5.167; E/E-3.002; 2.512

[8] = system: Puccinia recondita f. sp. tritici; experiment: Puccinia recondita f. sp. tritici / wheat / leaf disc preventative (brown rust); format: in vivo; details: foliar, wheat leaf segments cv Kanzler, inoculated 1 day after application, assessed 7-9 days after application
Experimental: Puccinia recondita f. sp. Tritici/Wheat/Leaf Disc Preventative (Brown Rust): Wheat leaf segments cultivated variety (cv) Kanzler were placed on agar in 24-well plates and sprayed with formulated test compound diluted in water at an application rate of 200 ppm. The leaf disks were inoculated with a spore suspension of the fungus 1 day after application. The inoculated leaf segments were incubated at 19° C. and 75% relative humidity under a light regime of 12/12 h (light/dark) in a climate cabinet and the activity of a compound was assessed as percent disease control compared to untreated when an appropriate level of disease damage appears in untreated check leaf segments (7-9 days after application). […]-2.508; 5.561; 2.561; 2.513; 2.559; 2.556; 2.555; 2.374; 2.544; 2.537; 2.530; 2.525 (fraction B); 2.519; 2.516; 2.514; E/E-5.167; E/E-3.002; 2.512; E/E-2.507

Cc1ccc2c(n1)/C(=N/OCC(C)(C)CO/N=C/c1ccc(OCc3ccccc3)cn1)CCC2 [Compound 2.553]
≥ 80%: inhibition of growth at up to 200 µg/mL [1] | inhibition of growth at up to 200 µg/mL [2] | inhibition of growth at up to 200 µg/mL [3] | inhibition of growth at up to 200 µg/mL (Gaeumannomyces graminis) | inhibition of growth at up to 200 µg/mL [4]

C/C(=N\OCC(C)(C)CO/N=C1\CCCc2c(C)cc(CF)nc21)c1cc(C)cc(C)n1 [E/E-2.208]
≥ 80%: inhibition of growth at up to 200 µg/mL (Glomerella lagenarium) | pest or weed control at 200 ppm [5] | pest or weed control at 200 ppm [6] | pest or weed control at 200 ppm [7] | pest or weed control at 200 ppm (Pyrenophora teres)

C/C(=N\OCC(C)(C)CO/N=C1\CCCc2ccc(C#CCO)nc21)c1cc(C)cc(C)n1 [Compound 2.558]
≥ 80%: inhibition of growth at up to 200 µg/mL [1] | inhibition of growth at up to 200 µg/mL [2] | inhibition of growth at up to 200 µg/mL [3] | inhibition of growth at up to 200 µg/mL (Gaeumannomyces graminis) | pest or weed control at 200 ppm [7] | inhibition of growth at up to 200 µg/mL [4] | pest or weed control at 200 ppm (Pyrenophora teres)

Cc1ccc2c(n1)/C(=N/OCC(C)(C)CO/N=C(\c1ccncc1)c1ccccn1)CCC2 [Compound 2.537]
≥ 80%: inhibition of growth at up to 200 µg/mL (Glomerella lagenarium) | pest or weed control at 200 ppm [5] | pest or weed control at 200 ppm [6] | inhibition of growth at up to 200 µg/mL [2] | inhibition of growth at up to 200 µg/mL [3] | pest or weed control at 200 ppm [8] | pest or weed control at 200 ppm [7] | pest or weed control at 200 ppm (Pyrenophora teres)

Cc1ccc2c(n1)/C(=N/OCC(C)(C)CO/N=C/c1ncc(Cl)cc1F)CCC2 [Compound 2.552]
≥ 80%: inhibition of growth at up to 200 µg/mL (Glomerella lagenarium) | pest or weed control at 200 ppm [5] | pest or weed control at 200 ppm [6] | inhibition of growth at up to 200 µg/mL [2] | inhibition of growth at up to 200 µg/mL [3] | inhibition of growth at up to 200 µg/mL (Gaeumannomyces graminis) | pest or weed control at 200 ppm (Pyrenophora teres)
